Assay results published in patent US20090062122A1, “Cotton Growth Regulator” (FMC Corporation, priority 2006, published 2009).

Experiments:
Assay type in all cases: in vivo
cotton, variety D&PL 555 [1] = assay: % open bolls of cotton plants, field trial; conditions: 14 DAA
Description: (§1) The trial was performed on cotton, variety D&PL 555. The formulated test compounds were diluted to the appropriate concentrations with water to which a crop oil concentrate (1% to 2% v/v) or a non-ionic surfactant (0.25% v/v) was added. The application of the test composition as a cotton plant growth regulator was performed using pressurized, over-the-top spray equipment consisting of a research scale boom sprayer. Deposit of the test composition was primarily to the top of the cotton plants, minimizing spray deposition to lower branches, leaves and fruit. The finished spray volume was 10 gallons per acre, with sprayer nozzle design, orientation and nozzle pressures chosen to prevent spray drift. Applications were made at first sign of cotton boll opening and at 15%, 20% and 40% open bolls.
(§2) The experimental design used randomized plots with 1 to 4 treatment rates of test composition and from 1 to 10 replications depending on the test (sees tables below). The size of each experimental plot was about 15 m^2. Testing was performed in Texas, North Carolina, Mississippi and Georgia.
(§3) Percent desiccation, percent defoliation, percent terminal control and percent open bolls were evaluated at 7 and 14 days after application (DAA) of the test composition. Inspection of cotton plants for insect control of armyworm larvae was performed at 2 DAA and insect damage to bolls was performed at the time of harvest
Open bolls refers to the number of bolls which have opened per 100 cotton plants. Fifty cotton plants in two representative locations within a treatment plot were chosen to examine for open bolls. The percent of open bolls was calculated by dividing the number of open bolls by the total number of bolls on the plants multiplied by 100.
(§4) The results, shown as the mean of the indicated number of replications, were compared with results observed in the same trials with an untreated control.

[2] = tested on: Brown Stinkbug (Euschistus servus); assay: % bolls damaged by brown stinkbug at harvest; conditions: 15% open boll application, 0.006 lb ai/a, 1 replicate
Description: as §1, with “bolls. […]” for “bolls.”
(§5) Percent desiccation, percent defoliation, percent terminal control and percent open bolls were evaluated at 7 and 14 days after application (DAA) of the test composition. […]
(§6) Bollworm (Heliothis zea) and stinkbug (Euschistus servus) insect control was measured by examining the bolls of 100 cotton plants, 50 cotton plants in two representative locations with in the treatment plot, for injury caused by either bollworms or by stinkbugs. The percent damage was calculated by dividing the number of damaged bolls by the total number of bolls on the plants multiplied by 100. […]

cotton, variety D&PL 555 [3] = assay: % terminal control of cotton plants, field trial
Description: as §1, §2, §3
Terminal control refers to crop response to the top-most vertical bud and shoots growth. Percent terminal control estimates the proportion of these upper-most growth structures desiccated per 100 cotton plants. Fifty cotton plants in two representative locations within a treatment plot were chosen to determine percent control. Each terminal of the 50 plants in the 2 locations was evaluated, and the total number desiccated per 100 plants was recorded as percent terminal control.
as §4

cotton, variety D&PL 555 [4] = assay: % desiccation of cotton leaves, field trial
Description: as §1, §2, §3
Desiccation refers to leaves or portions of leaves dried to debris following tissue death. […] An evaluation of the condition of leaves in the untreated check plots were observed. Then the test plots were individually evaluated. The percent of all leaves completely or partially desiccated by the test application were recorded, based upon live leaves and leaf debris within the test plot relative to foliage present in the untreated plot.
as §4

[5] = tested on: Fall Armyworms (Spodoptera frugiperda); assay: Number of fall armyworms on cotton plants; conditions: 15% open boll application; 0.004 lb ai/a; 2 DAA; 3 replicates; insects per plant
Description: as §1
The experimental design used randomized plots with 1 to 4 treatment rates of test composition and from 1 to 10 replications depending on the test (sees tables below). […]
as §5
The presence of fall armyworms (Spodoptera frugiperda) was determined by examining 20 cotton plants within each of 3 replicates of the treatment plots for fall armyworm. The number of insects per plant was calculated by dividing the total number of insects found by 60. […]

Bollworm (Heliothis zea) = assay: % bolls damaged by bollworm at harvest; conditions: 15% open boll application, 0.006 lb ai/a, 1 replicate
Description: as §1, with “bolls. […]” for “bolls.”
as §5, §6

cotton, variety D&PL 555 [6] = assay: Cotton yield; conditions: 5 replicates
Description: as §1, §2, §4

[7] = 20% open boll application, 0.002 lb ai/a, 14 DAA, 2 replicates
[8] = 20% open boll application, 0.004 lb ai/a, 14 DAA, 2 replicates
[9] = 20% open boll application, 0.006 lb ai/a, 14 DAA, 2 replicates
[10] = 20% open boll application, 0.008 lb ai/a, 14 DAA, 2 replicates

CCOC(=O)C(Cl)Cc1cc(-n2nc(C)n(C(F)F)c2=O)c(F)cc1Cl (stereo not drawn) [carfentrazone-ethyl, ethyl 2-chloro-3-[2-chloro-5-(4-difluoromethyl-3-methyl-5-oxo-4,5-dihydro-[1,2,4]-triazol-1-yl)-4-fluorophenyl]propionate]
% Open Bolls (cotton, variety D&PL 555 [1]; 15% open boll application, 0.004 lb ai/a, 10 replicates): 59% | % Open Bolls (cotton, variety D&PL 555 [1]; 15% open boll application, 0.006 lb ai/a, 10 replicates): 61% | % Open Bolls (cotton, variety D&PL 555 [1]; 15% open boll application, 0.008 lb ai/a, 10 replicates): 64% | % Open Bolls (cotton, variety D&PL 555 [1]; 15% open boll application, 0.01 lb ai/a, 10 replicates): 63% | % Open Bolls (cotton, variety D&PL 555 [1]; 20% open boll application, 0.002 lb ai/a, 3 replicates): 62% | % Open Bolls (cotton, variety D&PL 555 [1]; 20% open boll application, 0.004 lb ai/a, 3 replicates): 62% | % Open Bolls (cotton, variety D&PL 555 [1]; 20% open boll application, 0.006 lb ai/a, 3 replicates): 67% | % Open Bolls (cotton, variety D&PL 555 [1]; 20% open boll application, 0.008 lb ai/a, 3 replicates): 62% | % Open Bolls (cotton, variety D&PL 555 [1]; first open boll application, 0.002 lb ai/a, 3 replicates): 61% | % Open Bolls (cotton, variety D&PL 555 [1]; first open boll application, 0.004 lb ai/a, 3 replicates): 58% | % Open Bolls (cotton, variety D&PL 555 [1]; first open boll application, 0.006 lb ai/a, 3 replicates): 63% | % Open Bolls (cotton, variety D&PL 555 [1]; first open boll application, 0.008 lb ai/a, 3 replicates): 68% | % Bolls Damaged by Brown Stinkbug (Euschistus servus) [2]: 2.25% | % Terminal Control (cotton, variety D&PL 555 [3]; 15% open boll application, 0.004 lb ai/a, 14 DAA, 9 replicates): 63% | % Terminal Control (cotton, variety D&PL 555 [3]; 15% open boll application, 0.006 lb ai/a, 14 DAA, 9 replicates): 74% | % Terminal Control (cotton, variety D&PL 555 [3]; 15% open boll application, 0.008 lb ai/a, 14 DAA, 9 replicates): 79% | % Terminal Control (cotton, variety D&PL 555 [3]; 15% open boll application, 0.01 lb ai/a, 14 DAA, 9 replicates): 82% | % Terminal Control (cotton, variety D&PL 555 [3]; 20% open boll application, 0.002 lb ai/a, 7 DAA, 2 replicates): 50% | % Terminal Control (cotton, variety D&PL 555 [3]; [7]): 49% | % Terminal Control (cotton, variety D&PL 555 [3]; 20% open boll application, 0.004 lb ai/a, 7 DAA, 2 replicates): 67% | % Terminal Control (cotton, variety D&PL 555 [3]; [8]): 64% | % Terminal Control (cotton, variety D&PL 555 [3]; 20% open boll application, 0.006 lb ai/a, 7 DAA, 2 replicates): 66% | % Terminal Control (cotton, variety D&PL 555 [3]; [9]): 64% | % Terminal Control (cotton, variety D&PL 555 [3]; 20% open boll application, 0.008 lb ai/a, 7 DAA, 2 replicates): 60% | % Terminal Control (cotton, variety D&PL 555 [3]; [10]): 63% | % Terminal Control (cotton, variety D&PL 555 [3]; first open boll application, 0.002 lb ai/a, 7 DAA, 3 replicates): 27% | % Terminal Control (cotton, variety D&PL 555 [3]; first open boll application, 0.002 lb ai/a, 14 DAA, 3 replicates): 44% | % Terminal Control (cotton, variety D&PL 555 [3]; first open boll application, 0.004 lb ai/a, 7 DAA, 3 replicates): 46% | % Terminal Control (cotton, variety D&PL 555 [3]; first open boll application, 0.004 lb ai/a, 14 DAA, 3 replicates): 58% | % Terminal Control (cotton, variety D&PL 555 [3]; first open boll application, 0.006 lb ai/a, 7 DAA, 3 replicates): 47% | % Terminal Control (cotton, variety D&PL 555 [3]; first open boll application, 0.006 lb ai/a, 14 DAA, 3 replicates): 59% | % Terminal Control (cotton, variety D&PL 555 [3]; first open boll application, 0.008 lb ai/a, 7 DAA, 3 replicates): 50% | % Terminal Control (cotton, variety D&PL 555 [3]; first open boll application, 0.008 lb ai/a, 14 DAA, 3 replicates): 58% | % Desiccation (cotton, variety D&PL 555 [4]; 15% open boll application, 0.004 lb ai/a, 14 DAA, 10 replicates): 29% | % Desiccation (cotton, variety D&PL 555 [4]; 15% open boll application, 0.006 lb ai/a, 14 DAA, 10 replicates): 33% | % Desiccation (cotton, variety D&PL 555 [4]; 15% open boll application, 0.008 lb ai/a, 14 DAA, 10 replicates): 37% | % Desiccation (cotton, variety D&PL 555 [4]; 15% open boll application, 0.01 lb ai/a, 14 DAA, 10 replicates): 38% | % Desiccation (cotton, variety D&PL 555 [4]; 20% open boll application, 0.002 lb ai/a, 7 DAA, 3 replicates): 8% | % Desiccation (cotton, variety D&PL 555 [4]; [7]): 13% | % Desiccation (cotton, variety D&PL 555 [4]; 20% open boll application, 0.004 lb ai/a, 7 DAA, 3 replicates): 17% | % Desiccation (cotton, variety D&PL 555 [4]; [8]): 23% | % Desiccation (cotton, variety D&PL 555 [4]; 20% open boll application, 0.006 lb ai/a, 7 DAA, 3 replicates): 21% | % Desiccation (cotton, variety D&PL 555 [4]; [9]): 22% | % Desiccation (cotton, variety D&PL 555 [4]; 20% open boll application, 0.008 lb ai/a, 7 DAA, 3 replicates): 24% | % Desiccation (cotton, variety D&PL 555 [4]; [10]): 22% | % Desiccation (cotton, variety D&PL 555 [4]; 40% open boll application, 0.004 lb ai/a, 7 DAA, 1 replicate): 6% | % Desiccation (cotton, variety D&PL 555 [4]; 40% open boll application, 0.006 lb ai/a, 7 DAA, 1 replicate): 5% | % Desiccation (cotton, variety D&PL 555 [4]; 40% open boll application, 0.008 lb ai/a, 7 DAA, 1 replicate): 9% | % Desiccation (cotton, variety D&PL 555 [4]; first open boll application, 0.002 lb ai/a, 7 DAA, 4 replicates): 15% | % Desiccation (cotton, variety D&PL 555 [4]; first open boll application, 0.002 lb ai/a, 14 DAA, 4 replicates): 18% | % Desiccation (cotton, variety D&PL 555 [4]; first open boll application, 0.004 lb ai/a, 7 DAA, 4 replicates): 25% | % Desiccation (cotton, variety D&PL 555 [4]; first open boll application, 0.004 lb ai/a, 14 DAA, 4 replicates): 25% | % Desiccation (cotton, variety D&PL 555 [4]; first open boll application, 0.006 lb ai/a, 7 DAA, 4 replicates): 28% | % Desiccation (cotton, variety D&PL 555 [4]; first open boll application, 0.006 lb ai/a, 14 DAA, 4 replicates): 28% | % Desiccation (cotton, variety D&PL 555 [4]; first open boll application, 0.008 lb ai/a, 7 DAA, 4 replicates): 33% | % Desiccation (cotton, variety D&PL 555 [4]; first open boll application, 0.008 lb ai/a, 14 DAA, 4 replicates): 32% | Number of insects (Fall Armyworms, Spodoptera frugiperda) [5]: 0 | % Bolls Damaged by Bollworm (Heliothis zea) (Bollworm (Heliothis zea)): 1.75% | Cotton yield (cotton, variety D&PL 555 [6]; 20% open bolls application, 0.002 lb ai/a): 1168 Lb lint/Acre | Cotton yield (cotton, variety D&PL 555 [6]; 20% open bolls application, 0.004 lb ai/a): 1128 Lb lint/Acre | Cotton yield (cotton, variety D&PL 555 [6]; 20% open bolls application, 0.006 lb ai/a): 1107 Lb lint/Acre | Cotton yield (cotton, variety D&PL 555 [6]; 20% open bolls application, 0.008 lb ai/a): 1178 Lb lint/Acre | Cotton yield (cotton, variety D&PL 555 [6]; first open boll application, 0.002 lb ai/a): 1172 Lb lint/Acre | Cotton yield (cotton, variety D&PL 555 [6]; first open boll application, 0.004 lb ai/a): 1004 Lb lint/Acre | Cotton yield (cotton, variety D&PL 555 [6]; first open boll application, 0.006 lb ai/a): 1152 Lb lint/Acre | Cotton yield (cotton, variety D&PL 555 [6]; first open boll application, 0.008 lb ai/a): 1167 Lb lint/Acre
